This note sets out measurements from PubChem BioAssay AID2305 (GlaxoSmithKline (GSK), 2010).

pIC50: −log10 of the molar value. Where “and” joins values, the source holds several entries; their conditions need not be identical. Identical values can stand only once.

For the assay, the system named is P. falciparum 3D7 growth, pLDH absorbance. Description: P. falciparum 3D7 growth inhibition, dose response, strain 3D7 (AID 2305).

With `CN(CCCCNC(=O)c1cc2ccccc2[nH]1)C1CC2(CCN(C(=O)OC(C)(C)C)CC2)c2ccccc21` (stereo unspecified), the negative logarithm of the IC50 (pIC50) (commonly −log10 of the IC50, conventionally taken in molar units) was 6.03.
Take `CCCC(C)N(Cc1ccc(C(C)(C)C)cc1)C(=O)c1ccc(OC)cc1` (stereo unspecified): the negative-log IC50 (pIC50) is 6.96.
With `C=CCn1c(Sc2ccc(C#N)c([N+](=O)[O-])c2)nnc1-c1ccc(Cl)cc1`, the pIC50 was 6.17.
For `CCCN(CC)CCOC(=O)c1ccccc1`, the pIC50 was 6.13.
On to `COC(=O)Nc1cc(C(F)(F)F)ccc1N1CCCC(NS(=O)(=O)c2ccc(C(C)(C)C)cc2)C1` (stereo unspecified), for which the pIC50 is 6.42.
`O=C(Nc1cccc(-c2cccc(-c3nc4ccccc4[nH]3)c2)c1)Nc1ccc(Cl)c(Cl)c1` gave a negative logarithm of the IC50 (pIC50) of 6.89.
Molecule `Cc1cccc2[nH]c(-c3cccc(-c4ccc(C(=O)NCc5ccccc5S(C)(=O)=O)cc4)c3)nc12` had a pIC50 of 6.12.
To `Cc1cccc(NC(=O)NC2CCN(CCCCCNC(=O)/C=C/c3ccc(Cl)c(Cl)c3)CC2)c1` belongs 6.12.
Consider `COc1cccc(NC(=O)Nc2cc(C)nc3ccccc23)c1`, for which the pIC50 was 6.14.
`CC(C)CNCc1ccc(-c2cccc(CN(CCN(C)C)C(=O)CCC3CCCC3)c2)cc1`: the pIC50 was 6.09.
`CC(C)(C)OC(=O)N(Cc1cc(-n2nnnc2C(F)(F)F)ccc1O)[C@H]1CCCN(C(=O)OC(C)(C)C)[C@H]1c1ccccc1`: the pIC50 is 6.14.
In turn, `COc1cc(C)nc2ccc(NC(=O)c3ccc(C(=O)Nc4ccc5nc(C)cc(OC)c5c4)cc3)cc12` gave a pIC50 of 7.22.
`COc1ccc2nccc([C@@H](O)CN3CCC(NCc4cc5c(Cl)cc(Cl)cc5[nH]4)CC3)c2c1` gave a pIC50 of 7.22.
Under `N#Cc1ccc(NC(=O)c2ccc(C(=O)NCCCCN3CCC(c4ccc5c(c4OCCOC4CCCCO4)CCCC5)CC3)cc2)cc1` (stereo unspecified) stands 6.24.
To `Oc1ccc(-c2cncc(NCc3ccc(F)c(F)c3)c2)cc1` belongs 6.11; to `CC1CCN(C(=O)CSc2nc(-c3ccc(C(C)C)cc3)no2)CC1`, 5.87; to `COc1nc2c(N3CCN(CCNCc4ccc5c(n4)NC(=O)CS5)CC3)ccnc2cc1F`, 6.15.
Molecule `Cc1cccc2[nH]c(-c3cccc(-c4ccc(NC(=O)c5cccnc5)cc4)c3)nc12` had a pIC50 of 6.23.
Turning to `CCOCCCNc1sc(S(=O)(=O)c2ccccc2)nc1S(=O)(=O)c1ccc(C)cc1`, the pIC50 was 6.09.
`Cn1nccc1C(=O)NCCNCc1cccc(-c2ccc(-c3nc4ccc(C(F)(F)F)cc4[nH]3)s2)c1` had a pIC50 of 6.82.
The molecule `O=C(Nc1ccc(CN2CCCCC2)cc1)c1ccc(COc2ccc([N+](=O)[O-])cc2)o1` had a pIC50 of 6.00.
For the molecule `COc1ccc2nccc(NC(=O)N3CCC(NCCOc4cc(F)cc(F)c4)CC3)c2n1`, the pIC50 is 6.11.
`COc1cccc(C=CC(=O)N(CCN)Cc2ccccc2)c1` had a negative-log IC50 (pIC50) of 6.09.
Under `COc1ccc(OC)c(Cc2c(C)nc3nc(N)nc(N)c3c2C)c1` stands 6.07; under `COc1nc2c(CCN3CCC(NCc4ccc5c(n4)NC(=O)CO5)CC3)c(Cl)cnc2cc1F`, 6.38.
Take `COc1cc(CCOc2c(C)nc(N)nc2N)cc(OC)c1OC`: the pIC50 is 7.70.
With `Cc1ccc(-c2nnc(-c3ccc(C(=O)NC4CCN(Cc5ccc(C#N)cc5)CC4)cc3)o2)cc1Br`, the pIC50 is 6.07.
Take `O=C(NCc1ccccc1)c1nn(CCCN2CCC3(CC2)C(=O)NCN3c2ccccc2)cc1-c1ccc(Cl)c(Cl)c1`: the negative-log IC50 (pIC50) was 5.98.
`CCCNCc1ccc(-c2ccc(CN(CCOC)C(=O)c3ccco3)cc2)nc1` had a pIC50 of 6.00.
In turn, `CN1CCN(CC(=O)Nc2ccc(-c3ccc(-c4nc5ccc(C(F)(F)F)cc5[nH]4)cc3)cc2)CC1` had a pIC50 of 6.38.
For `COc1ccc(OCCCON)cc1`, the negative-log IC50 (pIC50) was 6.77.
Take `CC(Oc1cc(-n2cnc3ccc(NC(=O)CCN4CCCCC4)cc32)sc1C(N)=O)c1ccccc1Cl` (stereo unspecified): the negative logarithm of the IC50 (pIC50) is 6.40.
As to `CCC(C)c1ccc(NC(=O)Nc2ccc(Cn3ncc(N4CCCNCC4)c(Cl)c3=O)cc2)cc1` (stereo unspecified), the pIC50 is 5.99.
As to `Cc1ccc(NC(=O)c2ccc(Cl)c(Cl)c2)cc1-c1ccc(C(=O)Nc2ccncc2)cc1`, the negative-log IC50 (pIC50) was 6.24.
The molecule `CN(C(=O)Cc1ccc(Cl)cc1)C1CCN(CCCCCNC(=O)/C=C/c2ccc(Cl)c(Cl)c2)CC1` had a pIC50 of 6.14.
To `Cc1ccnc(NC(=O)c2cc(-c3cccc([N+](=O)[O-])c3)nc3onc(C)c23)c1` belongs 6.05; to `CC(=NN=C(N)N)c1ccc2c(c1)Cc1ccccc1-2`, 5.85.
With `CC[C@H](NC(=O)c1c(CC2CCN(CC(C)=O)CC2)c(-c2ccccc2)nc2ccccc12)c1ccccc1`, the pIC50 was 6.42.
Turning to `CN(C)CCCOc1ccc(-c2nc(-c3ccc4c(c3)CCC4=NO)c(-c3ccncc3)[nH]2)cc1`, the pIC50 is 6.08.
Regarding `O=C(Nc1ccccc1Cl)c1cc2ccccc2cc1O`, the pIC50 was 6.00.
Take `N#Cc1c(F)cc(N2CCC(NCC[C@H](N)Cc3ccc(F)c(F)c3)CC2)cc1F`: the negative-log IC50 (pIC50) was 6.07.
The molecule `O=C(C=Cc1ccc(Cl)c(Cl)c1)NCCCCCN1CCCC(CCCNC(=O)c2sc3ccccc3c2Cl)C1` (stereo unspecified) had a pIC50 of 5.99.
Molecule `O=C(/C=C/c1ccc(F)cc1)NC1CCC(CCN2CCc3ccccc3CC2)CC1` (stereo unspecified) had a pIC50 of 5.85.
The molecule `CN1CCC(Oc2ccc(CN3CC[C@H](NC(=O)c4cccc(C#N)c4)C3)c3ccccc23)C1` (stereo partly specified) showed a pIC50 of 6.10.
Take `COc1ccc2c(C)cc(NCCCN(C)C)nc2c1`: the negative logarithm of the IC50 (pIC50) was 5.96.
Consider `Fc1ccc2nc(-c3ccc(-c4cccc(CN5CCCCC5)c4)cc3)[nH]c2c1`, for which the pIC50 is 6.57.
For the molecule `Cc1c(S(=O)(=O)Nc2ccc3ccn(CCN(C)C)c3c2)sc2ccc(Cl)cc12`, the pIC50 is 6.04.
The molecule `CCOC(=O)CN(c1ccc(Br)cc1OCCOc1cc(Br)ccc1N(CC(=O)OCC)C(C)C(=O)OCC)C(C)C(=O)OCC` (stereo unspecified) had a pIC50 of 6.09.
`CN1CCC(NCc2ccc(-c3ccc(Cl)cc3)cc2)CC1` had a pIC50 of 6.12.
Consider `NC(N)=Nc1ccc(OCCCCCOc2ccc(N=C(N)N)cc2Br)c(Br)c1`, for which the pIC50 is 6.59.
Consider `COc1ccc(Cc2nc3c(n2C(C)=O)SC(c2ccc(Cl)c(Cl)c2)=NN3C(C)=O)cc1`, for which the pIC50 was 6.09.
In the case of `COc1cccc2cc(C(=O)N[C@@H](CC(C)C)C(=O)N[C@H](/C=N/N3CCOC3=O)Cc3ccccc3)oc12`, the pIC50 is 6.16.
As for `O=C(CC1CCCC1)N(CC1CCN(Cc2ccc(C(F)(F)F)cc2)CC1)c1ccc(N2CCOCC2)c(F)c1`, the pIC50 was 6.37.
In turn, `CCc1ccccc1N1CCN(CCCC(=O)c2ccc(NC(=O)c3cc(Cl)cc(Cl)c3)cc2)CC1` showed a pIC50 of 6.54.
Turning to `CCCCCn1c(Sc2ccc(C#N)c([N+](=O)[O-])c2)nnc1-c1ccc(Cl)cc1`, the negative logarithm of the IC50 (pIC50) was 5.97.
To `COc1cc2c(cc1OC)C(C)(C)CN1Cc3c(c(CO)c(OC)c(OC)c3OC)CC21` (stereo unspecified) belongs 6.11.
With `Cc1cccc2[nH]c(-c3ccc(-c4ccc(CN5CCN(c6cnccn6)CC5)cc4)s3)nc12`, the pIC50 is 6.12.
`CN1CCN(CC(=O)Nc2cccc(-c3ccc(-c4nc5ccc(F)cc5[nH]4)cc3)c2)CC1`: the pIC50 is 6.15.
As for `COc1cc(C(=O)N2CCOC(CCN3CCC(c4ccc(Cl)cc4)CC3)(c3ccc(Cl)c(Cl)c3)C2)cc(OC)c1OC` (stereo unspecified), the pIC50 was 6.74.
For the molecule `CCOCCCNc1nc2cc(OC)c(OC)cc2c2nc(-c3ccccc3)nn12`, the pIC50 was 6.68.
With `NCCNS(=O)(=O)c1ccc(-c2ccnc3[nH]c(-c4ccncc4)cc23)cc1`, the pIC50 is 6.08.
As to `CCOc1cc(C(=O)NCCCN2CCN(c3cccc(Cl)c3)CC2)ccc1-c1nc2cc(Cl)c(F)cc2[nH]1`, the pIC50 was 6.06.
Under `CS(=O)(=O)c1ccc(-n2nc(C(F)(F)F)cc2-c2ccc(/C=N/OCC(=O)O)o2)cc1` stands 6.01; under `O=C(NCc1cccc(F)c1)Nc1cccc(-c2ccc(-c3nc4ccc(F)cc4[nH]3)cc2)c1`, 5.98; under `Cc1ccc2c(c1)nc(N)n2C[C@H](O)c1ccccc1`, 6.24.
As to `CCNc1cc(CC)nc(Nc2ccc(C)cc2)n1`, the pIC50 is 6.07.
`COc1cc(C=NNc2ccnc3cc(Cl)ccc23)ccc1O` gave a pIC50 of 6.89.
Regarding `COc1ccc(Nc2nc(NN=Cc3cc(Cl)ccc3O)nc(Nc3ccccc3)n2)cc1`, the pIC50 was 6.19.
Consider `Cc1ccc(-c2nnc(Nc3ccc(OCC(N)=O)cc3)c3ccccc23)cc1S(=O)(=O)NCC1CCCO1` (stereo unspecified), for which the pIC50 was 6.12.
`CCCCC(CC)CN1C(=O)C(c2ccccc2)(c2ccccc2)N=C1N` (stereo unspecified) showed a pIC50 of 6.72.
The molecule `Cc1[nH]c(C)c(-c2ccc(OCc3cc(C(F)(F)F)cc(C(F)(F)F)c3)nc2)c(=O)c1Br` gave a pIC50 of 6.82.
In turn, `Cc1noc(C)c1-c1cccc(CNCc2cccc(-c3cccc(-c4nc5ccc(C(F)(F)F)cc5[nH]4)c3)c2)c1` gave a pIC50 of 6.34.
Turning to `COc1ccc2ncc(C#N)c(CCN3[C@@H]4CC[C@H]3CC(NCc3ccc5c(n3)NC(=O)CS5)C4)c2c1` (stereo partly specified), the pIC50 is 6.09.
For `Cc1[nH]c(C)c(-c2ccc(Oc3ccccc3)cc2)c(=O)c1Br`, the pIC50 was 7.30.
The molecule `CC12CCC(C(=O)N(CC(O)Cn3c4ccc(Cl)cc4c4cc(Cl)ccc43)C1=O)C2(C)C` (stereo unspecified) showed a pIC50 of 6.08.
Turning to `Cc1cccc2[nH]c(-c3cccc(-c4ccc(NC(=O)c5cnc[nH]5)cc4)c3)nc12`, the negative logarithm of the IC50 (pIC50) is 6.14.
For the molecule `O=C1Nc2cccc3c2C1(CCCCN1CCC(c2cc4ccncc4[nH]2)CC1)CCC3` (stereo unspecified), the pIC50 was 6.10 and 6.04.
With `CN(C)CCn1c(=N)n(CC(O)c2ccc(Cl)c(Cl)c2)c2ccccc21` (stereo unspecified), the pIC50 was 6.10.
In turn, `CC(C)CCOc1ccc(NC(=O)c2cccs2)cc1` gave a pIC50 of 6.29.
Molecule `O=C(NCCNc1nc(NCCNC(=O)Nc2ccccc2)c2ccc(=O)n(-c3c(F)cccc3F)c2n1)Nc1ccccc1` gave a pIC50 of 6.77.
`c1ccc2c(c1)CN(Cc1cc3ccccc3[nH]1)CC1(CCN(Cc3c[nH]c4cnccc34)CC1)O2` had a pIC50 of 6.51.
Molecule `Cc1[nH]c(C)c([N+](=O)[O-])c(=O)c1-c1ccc(Oc2ccc(OC(F)(F)F)cc2)cc1` had a pIC50 of 6.60.
As to `CC(C)(C)c1ccc(NC(=O)c2ccc(CN3CCCN(Cc4ccsc4)CC3)cc2)cc1`, the pIC50 was 6.14.
`Cc1cc(NC(=O)c2ccco2)ccc1OC1CCN(Cc2ccccc2)CC1` gave a pIC50 of 6.28.
Under `Cc1c(CC(=O)N(C)C2CCN(CCCCCNC(=O)/C=C/c3ccc(Cl)c(Cl)c3)CC2)sc2ccc(Cl)cc12` stands 5.94; under `COc1ccc(-c2ccc(NC(=O)c3ccc(Cl)cc3)cc2)cc1CN1CCCN(C)CC1`, 6.19.
